Series [1] concerns the target T1, RecAPa*-induced full-length LexAPa autoproteolysis (Pseudomonas aeruginosa, UniProt P37452).
T1 construct: Full-length LexAPa was used instead of FlAsH-LexAPa ^CTD; made in house; host or cells: E. coli BL21(DE3)
As to the kind of experiment: RecAPa*-induced LexAPa autoproteolysis assay by SDS-PAGE. The note with it: 1 μM full-length LexAPa, 1 μM RecA*Pa, 1 h at 37 °C. The format is biochemical, P. aeruginosa. On the procedure:
To further validate the activity of A12 on RecA*Pa-LexAPa, an assay was performed using full-length LexAPa, and autoproteolysis was followed by SDS-PAGE in the presence of different concentrations of A12 (Figure E). Cleavage reactions were performed at 1 μM full-length LexAPa, initiated by the addition of 1 μM RecA*Pa, and stopped after a 1 h incubation at 37 °C, corresponding to the same conditions used for the FP assay.
SDS-PAGE was used as an orthogonal technique to FP to validate the dose-dependent inhibition of RecAPa*-induced LexAPa autocleavage by the selected hit compound.
Full-length LexAPa was used instead of FlAsH-LexAPa ^CTD, but reaction volumes, molar concentrations of reagents, incubation time, and temperature were kept the same as in the FP-based assay. Following 1 h of incubation at 37 °C in the presence of RecAPa*, reactions were stopped by adding Laemmli solubilization buffer and freezing the samples at −20 °C.
Samples were boiled 5 min at 95 °C before being loaded on 4–12% polyacrylamide gels. After Coomassie staining of the gels, the intensity of the bands corresponding to LexAPa and its autoproteolytic fragments was quantified using ImageJ. Data obtained from LexACTD/NTD bands densitometry were used to estimate LexA self-cleavage percent inhibition (scaling all the data from 0%, positive control, to 100%, negative control). […]

Series [2] concerns the target T2, LexAPa S125A (Pseudomonas aeruginosa, UniProt P37452, S125A).
T2 construct: Concerning full-length LexAPa ^S125A, a biphasic melting curve was obtained for the pure protein; made in house; host or cells: E. coli BL21(DE3)
Briefly: Differential scanning fluorimetry (thermal shift) on LexAPa S125A. The series is classed as binding, P. aeruginosa. The note with it: A12 above 100 μM. The method, then: To elucidate whether A12 binds RecAPa or LexAPa, the two proteins were submitted to a thermal shift assay by DSF, in the presence of different concentrations of A12 (30–1000 μM; Figure A–C). Controls devoid of A12 were included, as well.
Fluorescence of the SyproOrange dye was measured by a StepOne Real-Time PCR System (Applied Biosystems), while increasing the temperature from 25 to 95 °C (0.5 °C/min). Normalized fluorescence intensity curves were compared to observe macroscopic differences in the recorded melting profiles, while derivative curves were analyzed to find exact protein melting temperatures (T m, corresponding to derivative curve minimum). Melting curves were repeated twice, and duplicates were considered coherent if T m differences were lower than 1 °C.
(In general: DSF heats the sample and reads unfolding from a dye or from intrinsic fluorescence.)

For series [3], the target named is T3, RecAPa (Pseudomonas aeruginosa, UniProt P08280).
T3 construct: made in house; host or cells: E. coli BL21(DE3)
As to the kind of experiment: Isothermal titration calorimetry on RecAPa. The format is binding, P. aeruginosa. The method, then: To investigate deeper the binding of A12 to the two members of the P. aeruginosa SOS complex, ITC was performed on RecAPa and LexAPa ^S125A (Figure D,E). The integrated binding isotherms of both proteins were best fitted by a “one set of sites” model.
64 μM RecAPa and 58.5 μM LexAPa ^S125A were titrated with the selected compound (2.5 mM solution) using a Microcal PEAQ-ITC instrument (Malvern Panalytical) at 25 °C with a stirring rate of 750 rpm. Proteins and the ligand were dissolved in ITC Buffer (20 mM Tris–HCl, 150 mM NaCl, 5% v/v DMSO, pH 7.5). An initial 0.4 μL injection (excluded from data analysis) was followed by 24 injections of 1.5 μL with a spacing of 150 s between each addition. Blank experiments were performed by injecting the titrant compound in a protein-devoid ITC Buffer. Blank curves were subtracted from all of the experiments. Data were analyzed by using the MicroCal PEAQ-ITC Evaluation software (Malvern Panalytical). Integrated heat signals were fitted by a “one set of sites” binding model to obtain enthalpy changes (ΔH), dissociation constants (K D), and stoichiometry of binding.
On the technique in general: In ITC the heat of successive injections is recorded.

A short description of series [4]: Solubility in aqueous buffers. The series is classed as physicochemical. The note with it: aqueous buffer, read-out: Solubility in aqueous buffers, concentration above which it strongly worsened.
Series [5] has as its target T3, RecAPa. As to the kind of experiment: ESI-MS analysis of RecAPa preincubated with A12. As to conditions: 2 mM A12, 2 h at 25 °C; condensation, Lys285. The format is binding, P. aeruginosa. On the procedure: Then, ESI-MS analysis was carried out on both RecAPa and LexAPa alone and preincubated with A12 (referred to as RecAPa-A12 and LexAPa-A12, respectively).
MS analysis was carried out on 5 μL samples of compound A12 (2 mM), of the proteins 6His-LexAPa and 6His-RecAPa (50 μM), and of the same proteins incubated with 2 mM A12 (2 h incubation at 25 °C, 10% v/v DMSO in 100 mM NaHCO3 pH 7.0). Aliquots of the latter samples were treated with 5 mM dithiothreitol (DTT) for 1 h at 25 °C before being buffer-exchanged in 100 mM NaHCO3 at pH 7.0. Samples were analyzed by an electrospray ionization (ESI) mass spectrometer equipped with a Xevo G2-XS ESI-Q-TOF mass spectrometer (Waters Corporation, Milford, Massachusetts, USA). Measurements were carried out at 1.5–1.8 kV capillary voltage and 30–40 V cone voltage.
Tryptic digestion was obtained at a 1:20 trypsin to protein ratio (by weight) after the incubation of the proteins (6His-LexAPa and 6His-RecAPa) with chemical compound A12. The reaction was left at 37 °C overnight and then stopped by freezing at – 20 °C. Proteolytic mixtures were analyzed by LC–MS, using an Agilent AdvanceBio Peptide Map column (2.1 × 150 mm × 2.7 μm; Santa Clara, CA, USA) connected to an Acquity H-Class instrument (Waters Corporation, Milford, Massachusetts, USA). […]

The record followed here is PMC12706794, “Identification and Characterization of a Small-Molecule Inhibitor of the Pseudomonas aeruginosa SOS Response” (ACS Infectious Diseases, 2025).

≈ marks a conversion by molar mass, not a printed value.

T3 sequence (P08280 whole entry): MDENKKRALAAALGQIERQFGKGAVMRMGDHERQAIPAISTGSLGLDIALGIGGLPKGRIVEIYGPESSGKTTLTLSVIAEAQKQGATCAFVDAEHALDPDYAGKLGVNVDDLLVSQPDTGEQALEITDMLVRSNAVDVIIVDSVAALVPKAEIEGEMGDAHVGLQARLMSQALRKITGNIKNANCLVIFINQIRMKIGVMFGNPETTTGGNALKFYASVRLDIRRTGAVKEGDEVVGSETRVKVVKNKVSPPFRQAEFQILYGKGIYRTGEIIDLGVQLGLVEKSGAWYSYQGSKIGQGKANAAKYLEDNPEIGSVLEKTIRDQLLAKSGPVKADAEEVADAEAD
T1 sequence (P37452 2-204): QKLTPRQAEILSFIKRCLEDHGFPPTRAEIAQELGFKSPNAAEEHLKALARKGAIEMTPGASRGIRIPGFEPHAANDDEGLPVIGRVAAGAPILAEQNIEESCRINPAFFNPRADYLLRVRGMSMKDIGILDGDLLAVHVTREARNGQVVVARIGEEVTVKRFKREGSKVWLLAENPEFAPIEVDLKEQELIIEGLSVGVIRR
T2 sequence (P37452 2-204 S125A): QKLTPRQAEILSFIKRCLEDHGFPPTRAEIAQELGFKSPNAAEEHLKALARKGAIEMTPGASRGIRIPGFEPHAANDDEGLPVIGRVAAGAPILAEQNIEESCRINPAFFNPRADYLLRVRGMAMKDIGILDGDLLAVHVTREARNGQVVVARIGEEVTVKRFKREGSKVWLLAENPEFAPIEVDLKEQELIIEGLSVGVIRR

In the case of `O=C(O)CCNc1ccccc1S` [A12, 3-(2-sulfanylanilino)propanoic acid], in series [1], the IC50 – broadly, the concentration that inhibits the measured activity by half – stood at 58 ± 5 µM. The “LexAPa S125A flexus of monophasic melting curve” value in series [2] came out at 52.0 °C. Further, in series [3], the dissociation constant Kd (usually the constant that tells how readily two partners part at equilibrium) turned out to be 18 ± 3 µM. Also, the solubility in series [4] was approximately 500 µM (≈ 98.6 µg/mL). For the same molecule, the “Mass difference of A12-modified RecAPa versus unmodified protein” value in series [5] worked out at 179 Da.
